The numbers were not newly measured in PubChem BioAssay AID1259410 (Chemical Carcinogenesis Research Information System (CCRIS), 2018), which cites them from elsewhere.

SMILES strings stand for the structures.

The data set has as its system rodent tumor promotion studies, tumor incidence. As to the kind of experiment: CCRIS tumor promotion studies.
[1] abbreviates: Carcinogen: 7,12-DIMETHYLBENZ(A)ANTHRACENE, Doses [Carcinogen]: TOP, Route [Carcinogen]: DERMAL, Route [Promoter]: DERMAL, Species: MOUSE, Strain/Sex: FEMALE.

`CCC1(c2ccccc2)C(=O)N=C(O)NC1=O` (centres undefined): the outcome by setting is: (Carcinogen: 2-(ACETYLAMINO)FLUORINE, Doses [Carcinogen]: 0.02% IN DIET FOR 4 WK, Doses [Promoter]: 0.05% IN DIET FOR 32 WK, Route [Carcinogen]: ORAL, Route [Promoter]: ORAL, Species: RAT, Strain/Sex: F344/MALE) “liver: hepatocellular carcinoma”; (Carcinogen: DIETHYLNITROSAMINE, 55-18-5, 2-ACETYLAMINOFLUORENE, 6292-55-3, CARBON TETRACHLORIDE, 56-23-5, Carcinogen: DIETHYLNITROSAMINE, 55-18-5, 2-ACETYLAMINOFLUORENE, 6292-55-3, CARBON TETRACHLORIDE, 56-23-5, Doses [Carcinogen]: 200 MG/KG ONCE FOLLOWED 2 WK LATER BY 0.03% 2-ACETYLAMINOFLUORENE IN DIET FOR 2 WK PLUS 2 ML/KG CARBON TETRACHLORIDE IN, Doses [Promoter]: 0.05% IN DIET STARTING 1 WK POST 2-ACETYLAMINOFLUORENE AND CONTINUED FOR 6 MO (STUDY DURATION: 7 MO), Route [Carcinogen]: INTRAPERITONEAL, ORAL, INTRAGASTRIC, Route [Carcinogen]: INTRAPERITONEAL, ORAL, INTRAGASTRIC, Route [Promoter]: ORAL, Species: RAT, Strain/Sex: WISTAR/MALE) “liver: hepatocellular carcinoma”; (Carcinogen: DIETHYLNITROSAMINE, 55-18-5, Doses [Carcinogen]: 2.5, 10, 25, 50 UG/G IN SALINE ONCE ON DAY 15 OF AGE, Doses [Promoter]: 0, 500 PPM IN DRINKING WATER FROM 28 DAYS OF AGE TO 12, 24, 40 WK POST-WEANING (STUDY DURATION: 42 WK), Route [Carcinogen]: INTRAPERITONEAL, Route [Promoter]: ORAL, Species: MOUSE, Strain/Sex: BALB/MALE) “liver: adenoma”; (Carcinogen: DIETHYLNITROSAMINE, 55-18-5, N-METHYLNITROSOUREA, 684-93-5, DIHYDROXY-DI-N- PROPYLNITROSAMINE, 53604-64-6, Carcinogen: DIETHYLNITROSAMINE, 55-18-5, N-METHYLNITROSOUREA, 684-93-5, DIHYDROXY-DI-N- PROPYLNITROSAMINE, 53604-64-6, Doses [Carcinogen]: 100 MG/KG IN SALINE AT BEGINNING OF STUDY, 20 MG/KG IN CITRATE BUFFERED SOLUTION ON D 2, 5, 8 AND 11, 0.1% IN DRINKING, Doses [Carcinogen]: 100 MG/KG IN SALINE AT BEGINNING OF STUDY, 20 MG/KG IN CITRATE BUFFERED SOLUTION ON D 2, 5, 8 AND 11, 0.1% IN DRINKING, Doses [Promoter]: 0, 500 PPM IN DIET BEGINNING POST SEQUENTIAL CARCINOGEN TREATMENT AND CONTINUING FOR DURATION OF STUDY (STUDY DURATION:, Route [Carcinogen]: IP, IP, ORAL, Route [Carcinogen]: IP, IP, ORAL, Route [Promoter]: ORAL, Species: RAT, Strain/Sex: F344/MALE) “thyroid: adenoma”; (Carcinogen: DIETHYLNITROSAMINE, 55-18-5, N-METHYLNITROSOUREA, 684-93-5, DIHYDROXY-DI-N- PROPYLNITROSAMINE, 53609-64-6, Carcinogen: DIETHYLNITROSAMINE, 55-18-5, N-METHYLNITROSOUREA, 684-93-5, DIHYDROXY-DI-N- PROPYLNITROSAMINE, 53609-64-6, Doses [Carcinogen]: 100 MG/KG IN SALINE AT BEGINNING OF STUDY, 20 MG/KG IN CITRATE BUFFERED SOLUTION ON D 2, 5, 8 AND 11, 0.1% IN DRINKING, Doses [Carcinogen]: 100 MG/KG IN SALINE AT BEGINNING OF STUDY, 20 MG/KG IN CITRATE BUFFERED SOLUTION ON D 2, 5, 8 AND 11, 0.1% IN DRINKING, Doses [Promoter]: 0, 500 PPM IN DIET BEGINNING POST SEQUENTIAL CARCINOGEN TREATMENT AND CONTINUING FOR DURATION OF STUDY (STUDY DURATION:, Route [Carcinogen]: IP, IP, ORAL, Route [Carcinogen]: IP, IP, ORAL, Route [Promoter]: ORAL, Species: RAT, Strain/Sex: F344/MALE) “thyroid: adenoma”; (Carcinogen: ETHYLNITROSOUREA, 759-73-9, Doses [Carcinogen]: 5 MG/KG ONCE AT 15 D OF AGE, Doses [Promoter]: 0, 500 PPM IN DRINKING WATER BEGINNING AT 5 WK OF AGE AND CONTINUING TO 51 WK OF AGE (STUDY DURATION: 52 WK), Route [Carcinogen]: INTRAPERITONEAL, Route [Promoter]: ORAL, Species: MOUSE, Strain/Sex: CD-1/FEMALE) “liver: adenoma”. Further, the outcome is, setting by setting: (Carcinogen: ETHYLNITROSOUREA, 759-73-9, Doses [Carcinogen]: 5 MG/KG ONCE AT 15 D OF AGE, Doses [Promoter]: 0, 500 PPM IN DRINKING WATER BEGINNING AT 5 WK OF AGE AND CONTINUING TO 51 WK OF AGE (STUDY DURATION: 52 WK), Route [Carcinogen]: INTRAPERITONEAL, Route [Promoter]: ORAL, Species: MOUSE, Strain/Sex: CD-1/MALE) “liver: carcinoma”; (Carcinogen: ETHYLNITROSOUREA, 759-73-9, Doses [Carcinogen]: 20 MG/KG ONCE AT 15 D OF AGE, Doses [Promoter]: 0, 500 PPM IN DRINKING WATER BEGINNING AT 5 WK OF AGE AND CONTINUING TO 51 WK OF AGE (STUDY DURATION: 52 WK), Route [Carcinogen]: INTRAPERITONEAL, Route [Promoter]: ORAL, Species: MOUSE, Strain/Sex: CD-1/FEMALE) “liver: adenoma, carcinoma”; (Carcinogen: ETHYLNITROSOUREA, 759-73-9, Doses [Carcinogen]: 20 MG/KG ONCE AT 15 D OF AGE, Doses [Promoter]: 0, 500 PPM IN DRINKING WATER BEGINNING AT 5 WK OF AGE AND CONTINUING TO 51 WK OF AGE (STUDY DURATION: 52 WK), Route [Carcinogen]: INTRAPERITONEAL, Route [Promoter]: ORAL, Species: MOUSE, Strain/Sex: CD-1/MALE) “liver: carcinoma”; (Carcinogen: N-BIS(2-HYDROXYPROPYL)NITROSAMINE, 53609-64-6, Doses [Carcinogen]: 280 MG/100 G/BW ONCE, Doses [Promoter]: 0, 0.05% IN DRINKING WATER FOR 25 WK (STUDY DURATION: 26 WK), Route [Carcinogen]: SUBCUTANEOUS, Route [Promoter]: ORAL, Species: RAT, Strain/Sex: F344/MALE) “thyroid: neoplasm”; (Carcinogen: N-METHYL-N-NITROSOUREA, 684-93-5, Doses [Carcinogen]: 30 MG/KG BW ONCE, Doses [Promoter]: 0, 0.5% IN DRINKING WATER FOR DURATION OF STUDY BEGINNING POST CARCINOGEN DOSE(STUDY DURATION: 14 MO), Route [Carcinogen]: INTRAVENOUS, Route [Promoter]: ORAL, Species: RAT, Strain/Sex: LOBUND-WISTAR/MALE) “lung: carcinoma, prostate/seminal vesicles: tumor”.

On to `Oc1ccccc1Cl`, for which, under setting [1], the outcome is “integumentary system (skin)”.

As for `Cc1ccc(O)cc1C`, the outcome under setting [1] was “integumentary system (skin)”.

Regarding `Oc1ccc(O)cc1`, the outcome (Carcinogen: N-ETHYL-N-HYDROXYETHYLNITROSAMINE, 13147-25-6, Doses [Carcinogen]: 0.1% IN DRINKING WATER FOR 3 WK, Doses [Promoter]: 0, 0.8% IN DIET FOR 36 WK BEGINNING 1 WK POST CARCINOGEN TREATMENT (STUDY DURATION: 40 WK), Route [Carcinogen]: ORAL, Route [Promoter]: ORAL, Species: RAT, Strain/Sex: WISTAR/MALE) is “kidney: microadenoma, renal cell tumor”; the outcome (Carcinogen: N-METHYL-N-NITROSOUREA [684-93-5], Doses [Carcinogen]: 20 MG/KG BW ONCE ON DAY 9 AFTER BIRTH (STUDY DURATION: 28 WK), Doses [Promoter]: 0.8% IN DIET FOR 26 WK BEGINNING 2 WK POST LAST CARCINOGEN DOSE (STUDY DURATION: 28 WK), Route [Carcinogen]: INTRAPERITONEAL, Route [Promoter]: ORAL, Species: MOUSE, Strain/Sex: ICR (CD-1)/FEMALE) is given as “lung: adenoma”; the outcome (Carcinogen: N-METHYL-N-NITROSOUREA [684-93-5], Doses [Carcinogen]: 20 MG/KG BW ONCE ON DAY 9 AFTER BIRTH (STUDY DURATION: 28 WK), Doses [Promoter]: 0.8% IN DIET FOR 26 WK BEGINNING 2 WK POST LAST CARCINOGEN DOSE (STUDY DURATION: 28 WK), Route [Carcinogen]: INTRAPERITONEAL, Route [Promoter]: ORAL, Species: MOUSE, Strain/Sex: ICR (CD-1)/MALE) is on record as “lung: carcinoma”.

For `O=C1NC(=O)C(c2ccccc2)(c2ccccc2)N1`, the outcome reads like this: (Carcinogen: N,N-DIETHYLNITROSAMINE, 55-18-5, Doses [Carcinogen]: 75 MG/KG IN SALINE ONCE AT 5 WK OF AGE, Doses [Promoter]: 0, 500, 1500 PPM IN DIET FOR 45 WK BEGINNING 2 WK POST CARCINOGEN TREATMENT (STUDY DURATION: 47 WK), Doses [Promoter]: 0, 500, 1500 PPM IN DIET FOR 45 WK BEGINNING 2 WK POST CARCINOGEN TREATMENT (STUDY DURATION: 47 WK), Route [Carcinogen]: INTRAPERITONEAL, Route [Promoter]: ORAL, Species: RAT, Strain/Sex: F344/MALE) “liver: hepatocellular adenoma”; (Carcinogen: N,N-DIETHYLNITROSAMINE, 55-18-5, Doses [Carcinogen]: 75 MG/KG IN SALINE ONCE AT 5 WK OF AGE, Doses [Promoter]: 0, 500, 1500 PPM IN DIET FOR 46-72 WK BEGINNING 2 WK POST CARCINOGEN TREATMENT (STUDY DURATION: 46-72 WK), Doses [Promoter]: 0, 500, 1500 PPM IN DIET FOR 46-72 WK BEGINNING 2 WK POST CARCINOGEN TREATMENT (STUDY DURATION: 46-72 WK), Route [Carcinogen]: INTRAPERITONEAL, Route [Promoter]: ORAL, Species: RAT, Strain/Sex: F344/MALE) “liver: hepatocellular adenoma”; (Carcinogen: N-NITROSODIETHYLAMINE, 55-18-5, Doses [Carcinogen]: 90 MG/KG BW IN TRICAPRYLIN ONCE, Doses [Promoter]: 0, 500 PPM IN DIET FOR 53 WK BEGINNING 2 WK POST CARCINOGEN DOSE (STUDY DURATION: 55 WK), Route [Carcinogen]: INTRAPERITONEAL, Route [Promoter]: ORAL, Species: MOUSE, Strain/Sex: D2B6F1/MALE) “liver: tumor”.
